Consider 24 compounds from US20160151337A1, “ANNELATED PYRROLES AND THEIR USE AS CRAC INHIBITORS” (Grünenthal GmbH, priority 2013, published 2016).

Experiment [1] has as its system Interleukin-2 (IL-2) production/release in Jurkat T cells. The experiment in a line: Jurkat IL-2 Production Assay (PHA-stimulated, IL-2 AlphaLisa). It counts as cell-based. The conditions noted are these: Homo sapiens, PHA 15 μg/ml, 22 h, inhibition of IL-2 production. The protocol:
The effect of compounds of the invention on Interleukin-2 (IL-2) production/release was tested in the Jurkat T cell line (ECACC) clone E6-1.
Jurkat T cells were cultured in DMEM/F12/Glutamax (Gibco) containing 10% FCS (Gibco), and maintained at 37° C., 5% CO2. Cells were split twice a week [5*10^6 (Mon-Thu) and 1*10^7 (Thu-Mon) cells/50 ml medium in 1-175 ZK culture flasks, respectively].
Prior to experiment, cells were seeded on 96 well plates (Cellstar 96 Well; Cat No. 655180, Greiner bio-one) at a density of 5*10^5 cells/well in DMEM/F12/Glutamax (Gibco) containing 10% FCS (Gibco), and incubated for 60 min at 37° C., 5% CO2. Subsequently, compounds were added and cells were allowed to incubate for 30 min at 37° C., 5% CO2. Cells were then stimulated with 15 μg/ml Phyto-hemagglutinin (PHA; Sigma) for 22 hours at 37° C., 5% CO2.
Before sampling of the supernatants, cells were spun down (200*g/5 min/RT). The amount of IL-2 released into the supernatant was quantified with the human IL-2 AlphaLisa kit (Perkin Elmer) according to manufacturer's instructions. Luminescence proximity measurements were carried out in the Synergy H4 reader (BioTek) employing the fluorescence setting of the reader (ex: 680/30 nm; em: 620/40 nm).
Inhibition of IL-2 production/release in/from Jurkat T cells was quantified as follows: Zero percent inhibition (MAX) was defined as the [IL-2] determined in supernatants derived from cells to which PHA & DMSO-only had been added instead of compound. Hundred percent inhibition (MIN) was defined as the [IL-2] determined in supernatants derived from cells that had been pre-treated with 1 μM CyclosporineA (Sigma) before the addition of 15 μg/ml PHA.
For routine IC50 determinations of compounds, 8 concentrations of a serial dilution (1:3.16) were tested, starting off from 10 μM.
Background: In Alpha technology, singlet oxygen from a donor bead excites a nearby acceptor bead.

Another experiment concerns the target T1, CRAC channel (Homo sapiens, UniProt Q96D31).
T1 construct: endogenous in cells; host or cells: HEK293 (ECACC), untransfected
The experiment in a line: HEK Calcium Influx Assay (FLIPR), inhibition of store-operated Ca2+ entry after thapsigargin store depletion. Type of experiment: cell-based. The following applies: 10 μM compound, HEK293 cells, read-out: % inhib. [@ 10 μM] FLIPR. The gist of the method: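 HEK293 cells loaded with Calcium-4 dye in Ca2+-free HBS (pH 7.4), stores depleted with 2 μM thapsigargin for 10 min (100 μM EGTA); after 3 mM CaCl2 re-addition and 15 min steady-state, compounds added and FLIPR signal averaged 9.5–10 min post-dose. IC50 from 8-point 1:3.16 dilutions from 10 μM, normalised to DMSO and non-depleted wells.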

T1 sequence (Q96D31 whole entry): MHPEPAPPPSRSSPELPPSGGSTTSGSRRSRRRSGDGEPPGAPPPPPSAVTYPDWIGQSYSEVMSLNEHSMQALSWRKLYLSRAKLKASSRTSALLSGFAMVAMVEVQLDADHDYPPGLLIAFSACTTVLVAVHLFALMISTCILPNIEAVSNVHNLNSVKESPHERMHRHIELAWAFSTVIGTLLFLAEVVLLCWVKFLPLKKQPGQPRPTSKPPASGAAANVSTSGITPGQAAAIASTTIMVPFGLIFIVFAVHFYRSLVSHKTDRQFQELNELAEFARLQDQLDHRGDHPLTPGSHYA

The term IC50 denotes the concentration needed to halve the response being measured. Consider `Cc1cc(S(C)(=O)=O)ncc1N1CCc2[nH]c(C3CCCCC3)cc2C1` [Example 72, 2-Cyclohexyl-5-(4-methyl-6-methylsulfonyl-pyridin-3-yl)-4,5,6,7-tetrahydro-1H-pyrrolo[3,2-c]pyridine], for which the IC50 in experiment [1] is under 0.5 µM. On CRAC channel, the inhibition at 10 µM is over 70%.
`Cc1cc(C(F)(F)F)ncc1N1CCc2[nH]c(-c3c(F)cccc3F)cc2C1` [Example 73, 2-(2,6-Difluoro-phenyl)-5-[4-methyl-6-(trifluoromethyl)-pyridin-3-yl]-4,5,6,7-tetrahydro-1H-pyrrolo[3,2-c]pyridine]: in experiment [1], the IC50 was under 0.5 µM. Further, the inhibition at 10 µM on CRAC channel was over 70%.
Consider `CCCCc1cc2c([nH]1)CCN(c1cnc(S(C)(=O)=O)cc1C)C2` [Example 74, 2-Butyl-5-(4-methyl-6-methylsulfonyl-pyridin-3-yl)-4,5,6,7-tetrahydro-1H-pyrrolo[3,2-c]pyridine], for which the IC50 in experiment [1] was in the range of 1 to 5 µM. Further, on CRAC channel, the inhibition at 10 µM is over 70%.
For `Cc1cc(C2CC2)ncc1N1CCc2[nH]c(-c3c(F)cccc3F)cc2C1` [Example 75, 5-(6-Cyclopropyl-4-methyl-pyridin-3-yl)-2-(2,6-difluoro-phenyl)-4,5,6,7-tetrahydro-1H-pyrrolo[3,2-c]pyridine], in that order: 1 to 5 µM and over 70%.
On to `Cc1nc(C#N)ccc1N1CCc2[nH]c(-c3c(F)cccc3F)cc2C1` [Example 77, 5-[2-(2,6-Difluoro-phenyl)-4,5,6,7-tetrahydro-1H-pyrrolo[3,2-c]pyridin-5-yl]-6-methyl-pyridine-2-carbonitrile], for which the IC50 in experiment [1] fell in the range of 1 to 5 µM. The inhibition at 10 µM at CRAC channel was over 70%.
In the case of `Cc1cc(S(C)(=O)=O)ncc1N1CCc2[nH]c(-c3ccc(F)cc3F)cc2C1` [Example 78, 2-(2,4-Difluoro-phenyl)-5-(4-methyl-6-methylsulfonyl-pyridin-3-yl)-4,5,6,7-tetrahydro-1H-pyrrolo[3,2-c]pyridine], the IC50 in experiment [1] is 0.5 to 1 µM. Moreover, the inhibition at 10 µM at CRAC channel is over 70%.
Turning to `Cc1cc(S(C)(=O)=O)ncc1N1CCc2[nH]c(-c3ccccc3F)cc2C1` [Example 79, 2-(2-Fluorophenyl)-5-(4-methyl-6-methylsulfonyl-pyridin-3-yl)-4,5,6,7-tetrahydro-1H-pyrrolo[3,2-c]pyridine], the IC50 in experiment [1] fell in the range of 0.5 to 1 µM. Further, the inhibition at 10 µM on CRAC channel is over 70%.
For `CC(=O)c1ccc(N2CCc3[nH]c(-c4c(F)cccc4F)cc3C2)c(C)c1` [Example 82, 1-[4-[2-(2,6-Difluoro-phenyl)-4,5,6,7-tetrahydro-1H-pyrrolo[3,2-c]pyridin-5-yl]-3-methyl-phenyl]-ethanone], the IC50 in experiment [1] lay within 0.5 to 1 µM. Moreover, the inhibition at 10 µM on CRAC channel is over 70%.
On to `Cc1cc(S(C)(=O)=O)ncc1N1CCc2[nH]c(-c3cccnc3C)cc2C1` [Example 83, 5-(4-Methyl-6-methylsulfonyl-pyridin-3-yl)-2-(2-methyl-pyridin-3-yl)-4,5,6,7-tetrahydro-1H-pyrrolo[3,2-c]pyridine], for which the half-maximal inhibitory concentration (IC50) in experiment [1] was 1 to 5 µM. For the same compound, at CRAC channel, the inhibition at 10 µM was over 70%.
As for `Cc1cc(S(=O)(=O)C(F)(F)F)ccc1N1CCc2[nH]c(-c3c(F)cccc3F)cc2C1` [Example 86, 2-(2,6-Difluoro-phenyl)-5-[2-methyl-4-(trifluoromethylsulfonyl)-phenyl]-4,5,6,7-tetrahydro-1H-pyrrolo[3,2-c]pyridine], the IC50 in experiment [1] lay within 1 to 5 µM. Moreover, the inhibition at 10 µM on CRAC channel is under 50%.
Consider `Cc1cc([S+](C)[O-])ccc1N1CCc2[nH]c(-c3c(F)cccc3F)cc2C1` (stereo not drawn) [Example 87, 2-(2,6-Difluoro-phenyl)-5-[2-methyl-4-(methylsulfinyl)-phenyl]-4,5,6,7-tetrahydro-1H-pyrrolo[3,2-c]pyridine], for which the IC50 in experiment [1] fell in the range of 1 to 5 µM. The inhibition at 10 µM at CRAC channel was over 70%.
Consider `Cc1cc(S(C)(=O)=O)ccc1N1CCc2[nH]c(-c3c(F)cccc3F)cc2C1` [Example 88, 2-(2,6-Difluoro-phenyl)-5-(2-methyl-4-methylsulfonyl-phenyl)-4,5,6,7-tetrahydro-1H-pyrrolo[3,2-c]pyridine], for which the IC50 in experiment [1] was under 0.5 µM. Moreover, the inhibition at 10 µM on CRAC channel is 50 to 70%.
For `Cc1cc(S(C)(=O)=O)ncc1N1CCc2[nH]c(-c3ccncc3F)cc2C1` [Example 90, 2-(3-Fluoro-pyridin-4-yl)-5-(4-methyl-6-methylsulfonyl-pyridin-3-yl)-4,5,6,7-tetrahydro-1H-pyrrolo[3,2-c]pyridine], in that order: 1 to 5 µM and over 70%.
Taken in the same sequence, the figures for `Cc1cc(S(C)(=O)=O)ncc1N1CCc2[nH]c(-c3c(F)cccc3F)c(Br)c2C1` [Example 91, 3-Bromo-2-(2,6-difluoro-phenyl)-5-(4-methyl-6-methylsulfonyl-pyridin-3-yl)-4,5,6,7-tetrahydro-1H-pyrrolo[3,2-c]pyridine] were 1 to 5 µM and 50 to 70%.
As for `Cc1cc(C)c(-c2cc3c([nH]2)CCN(c2cnc(S(C)(=O)=O)cc2C)C3)cn1` [Example 92, 2-(4,6-Dimethyl-pyridin-3-yl)-5-(4-methyl-6-methylsulfonyl-pyridin-3-yl)-4,5,6,7-tetrahydro-1H-pyrrolo[3,2-c]pyridine], in experiment [1], the IC50 lay in the range of 1 to 5 µM. Moreover, at CRAC channel, the inhibition at 10 µM is over 70%.
Take `Cc1cc(C(F)(F)F)ncc1N1CCc2[nH]c(C3CCOCC3)cc2C1` [Example 93, 5-[4-Methyl-6-(trifluoromethyl)-pyridin-3-yl]-2-tetrahydro-pyran-4-yl-4,5,6,7-tetrahydro-1H-pyrrolo[3,2-c]pyridine]: the IC50 in experiment [1] fell in the range of 1 to 5 µM. Moreover, the inhibition at 10 µM at CRAC channel was over 70%.
Turning to `Cc1cc(S(C)(=O)=O)ncc1N1CCc2[nH]c(-c3cncc(F)c3C)cc2C1` [Example 96, 2-(5-Fluoro-4-methyl-pyridin-3-yl)-5-(4-methyl-6-methylsulfonyl-pyridin-3-yl)-4,5,6,7-tetrahydro-1H-pyrrolo[3,2-c]pyridine], the IC50 in experiment [1] was in the range of 0.5 to 1 µM. In addition, the inhibition at 10 µM at CRAC channel was over 70%.
Turning to `Cc1cc(C(F)(F)F)ncc1N1CCc2[nH]c(C3CCCCC3)cc2C1` [Example 97, 2-Cyclohexyl-5-[4-methyl-6-(trifluoromethyl)-pyridin-3-yl]-4,5,6,7-tetrahydro-1H-pyrrolo[3,2-c]pyridine], the IC50 in experiment [1] lay in the range of 1 to 5 µM. Moreover, the inhibition at 10 µM on CRAC channel lay within 50 to 70%.
For `Cc1sc(-c2ccn(C)n2)nc1N1CCc2[nH]c(-c3c(F)cccc3F)cc2C1` [Example 99, 4-[2-(2,6-Difluoro-phenyl)-4,5,6,7-tetrahydro-1H-pyrrolo[3,2-c]pyridin-5-yl]-5-methyl-2-(1-methyl-1H-pyrazol-3-yl)-thiazole], in experiment [1], the IC50 is under 0.5 µM. Further, the inhibition at 10 µM at CRAC channel is over 70%.
For `CCOc1cc(C(F)(F)F)c(N2CCc3[nH]c(-c4c(F)cccc4F)cc3C2)cn1` [Example 100, 2-(2,6-Difluoro-phenyl)-5-[6-ethoxy-4-(trifluoromethyl)-pyridin-3-yl]-4,5,6,7-tetrahydro-1H-pyrrolo[3,2-c]pyridine], in experiment [1], the IC50 was 1 to 5 µM. On CRAC channel, the inhibition at 10 µM was under 50%.
For `Cc1cc(S(C)(=O)=O)c(F)cc1N1CCc2[nH]c(-c3c(F)cccc3F)cc2C1` [Example 101, 2-(2,6-Difluoro-phenyl)-5-(5-fluoro-2-methyl-4-methylsulfonyl-phenyl)-4,5,6,7-tetrahydro-1H-pyrrolo[3,2-c]pyridine], in that order: under 0.5 µM and over 70%.
With `Cc1cc(C#N)cnc1N1CCc2[nH]c(C3CCCCC3)cc2C1` [Example 102, 6-(2-Cyclohexyl-4,5,6,7-tetrahydro-1H-pyrrolo[3,2-c]pyridin-5-yl)-5-methyl-nicotinonitrile], the IC50 in experiment [1] lay within 0.5 to 1 µM. Also, the inhibition at 10 µM on CRAC channel is over 70%.
Turning to `COc1cc2c(cc1N1CCc3[nH]c(C4CCCCC4)cc3C1)CCS2(=O)=O` [Example 103, 5-(2-Cyclohexyl-4,5,6,7-tetrahydro-1H-pyrrolo[3,2-c]pyridin-5-yl)-6-methoxy-2,3-dihydro-benzo[b]thiophene 1,1-dioxide], in experiment [1], the IC50 was under 0.5 µM. In addition, on CRAC channel, the inhibition at 10 µM was under 50%.
As for `Cc1cc(CS(C)(=O)=O)ncc1N1CCc2[nH]c(-c3c(F)cccc3F)cc2C1` [Example 104, 2-(2,6-Difluoro-phenyl)-5-[4-methyl-6-(methylsulfonyl-methyl)-pyridin-3-yl]-4,5,6,7-tetrahydro-1H-pyrrolo[3,2-c]pyridine], the IC50 in experiment [1] lay in the range of 1 to 5 µM. Also, the inhibition at 10 µM on CRAC channel was over 70%.
